35 compounds from a melting point compilation (Tetko et al.; mined from patent text by program, amines drawn as free bases though some values may be those of a salt) can be followed below.

One may read the melting point as the temperature of the solid-liquid transition.

Compound `COc1ccc2[nH]c(SCc3ncc(Br)c(N4CCCCC4)c3C)nc2c1` had a melting point of 90 to 92 °C. Turning to `CC(=O)c1ccc2c(c1)ncn2-c1cccc(N2CCN(C(C)=NO)CC2)c1`, the melting point was 193 to 195 °C. `N#Cc1c([N+](=O)[O-])ccc(N2CCCC2)c1Cl` displayed a melting point of 170 to 173 °C. Turning to `Cc1nc[nH]c1CSCCNc1nc(C)c(Cc2ccccc2)c(=O)[nH]1`, the melting point fell in the range of 140 to 142 °C.

On to `C/C(=C\c1ccc(O)cc1)c1ccc2c(c1)OCC(C)(C)CO2`, for which the melting point was in the range of 70 to 71 °C. Consider `OCC(O)C1OC(Sc2ccccc2)C(O)C1O` (stereo not given), for which the melting point lay within 105 to 107 °C.

For `O=C(CCCC(=O)N1CCC(c2ccc(Cl)cc2)CC1)c1ccc2c(c1)CCNCC2`, the melting point lay within 112 to 113 °C. With `O=Cc1ccc2c(c1)c1ccccc1n2CCCCCCCCCCn1c2ccccc2c2cc(C=O)ccc21` the figure was 122 °C. `CCOc1cc(C(=O)CCCC2CCCCC2)c(O)cc1C` showed a melting point of 48 to 49 °C. In the case of `COc1ccc(-c2cc3ncc(SC)c(O)c3s2)cc1`, the melting point fell in the range of 283 to 287 °C. As for `N#Cc1c(N2CCc3ccccc3CC2)nc(CO)n(CC(F)(F)F)c1=O`, the melting point is 181 to 185 °C. `CN(C)Cc1cc(C(=O)c2ccc(F)cc2)cc(C(C)(C)C)c1O` came in with a melting point of 112 to 113 °C. Next, `CCOC(=O)Nc1cnc(NCCCOc2cccc(CN3CCCCC3)c2)[nH]c1=O`: 171 to 173 °C.

Regarding `O=C(Nc1ccccc1)c1cccc(-c2ccc(OCC(O)CCc3cccnc3)cc2)c1` (stereo not given), the melting point fell in the range of 90 to 93 °C. On to `COc1cc(OC)c2c(=O)c3ccccc3oc2c1`, for which the melting point fell in the range of 170 to 171 °C. `COC(=O)C(CC(C)C)NCC(=O)Nc1cccc2c1C(=O)c1c(NC(=O)CNC(CC(C)C)C(=O)OC)cccc1C2=O` (stereo not given) showed a melting point of 238 to 239 °C.

`CCC1(CC)CN(C(C)(C)C)C(=O)C(CC)(CC)N1OCc1ccccc1` displayed a melting point of 83 to 85 °C.

As to `Cc1nc2c(o1)-c1c(SC(C)C)sc(C(N)=O)c1CC2`, the melting point lay within 230 to 231 °C. Next, `CC(C)(C)OC(=O)N=C(NC(=O)OC(C)(C)C)N1CCCC1`: 88 to 91 °C; `O=C1OC(c2ccccc2)CCN1Cc1ccccc1NS(=O)(=O)C(F)(F)F` (stereo not given): 152 °C. Next, `c1ccc2c(Cn3cncn3)noc2c1`: 102 to 104 °C. Next, `C[C@H](O)CCC[C@H](O)CCCCCc1cccc(O)c1C(=O)O`: 83 to 84 °C. As for `c1ccc(C(c2ccccc2)N2CCN(CCOc3ccccc3-c3nc4ccccc4s3)CC2)cc1`, the melting point fell in the range of 67 to 72 °C. Take `O=C(Cc1ccccc1SCc1ccccc1)Nc1ccccc1`: the melting point fell in the range of 81 to 83 °C. In turn, `O=C1c2ccccc2C(O)(c2ccc(F)cc2)C2=NC3CCCCC3N12` (stereo not given) registered a melting point of 203 to 205 °C. With `CCOC(=O)CC[C@H](NC(=O)c1ccc(CNCc2cnc3nc(NC(=O)C(C)(C)C)nc(O)c3c2)cc1)C(=O)OCC` the figure was 149 to 151 °C; with `CCCCCCCCCCOc1ccc(Br)cc1OCCCCCCCCCC`, 39.5 to 40 °C; with `O=C1OC(c2ccccc2)(c2ccccc2)C2CN(C3CCN(Cc4ccccc4)CC3)CCN12` (stereo not given), 153 to 155 °C.

Turning to `Nc1ccc(CN2CCC(=O)C(=C3SC=CS3)C2=O)cc1`, the melting point lay in the range of 156 to 158 °C. In the case of `OCc1c(Cl)nc(C2CCCCC2)n1Cc1ccccc1`, the melting point lay in the range of 160 to 161 °C. With `COc1ccc(N2C(=O)C3=C(SCCO3)C2=O)nn1`, the melting point is 157 °C.

For `N=C(N)Nc1nc(CSCCNc2ncccc2C(=O)O)cs1`, the melting point was in the range of 141 to 145 °C. With `Cc1nc2c3ccccc3ccn2c1Cc1nnn[nH]1` the figure was 256 to 257 °C; with `Cc1ccccc1C=C1CCn2c1nc1ccc(C(=O)O)cc1c2=O`, 285 to 287 °C; with `O=c1cc(N2CCOCC2)oc2cc(OS(=O)(=O)C(F)(F)F)ccc12`, 143 to 145 °C.
